According to patent USRE47350E1, “Pharmaceutical formulations containing dopamine receptor ligands” (Richter Gedeon Nyrt., priority 2008, dated 2019):
Like-named read-outs stand apart in the source and are kept apart here. Each block holds one molecule with its values, some of them ahead of it.

Columns and labels:
[1] = Hydrolytic degradation when formulated with commonly used excipients (general statements); type: physicochemical
Excerpt: The formation of a degradation product such as De-BOC in a pharmaceutical formulation is detrimental to activity. Moreover, if the amount of degradation product exceeds FDA guidelines, additional safety and toxicology testing must be undertaken. Thus, it is important that stable and bioavailable formulations containing, for example, cariprazine and its salts, be developed, in which the amount of degradation product present falls within accepted FDA guidelines.
The preparation of stable and bioavailable dosage forms containing compounds of formula (I) is; however, not straightforward.

[2] = Double-blind placebo controlled single dose pharmacokinetic study of cariprazine capsules in healthy male volunteers (Example 4); type: in vivo, human; settings: for Cmax / Tmax / half-life / AUC(0-t): male, human, plasma, oral; for AUC(0-t): read-out: AUC0-168
Procedure: The pharmacokinetic parameters described herein include area under the plasma concentration-time curve (AUC0-t and AUC0-∞), maximum plasma concentration (Cmax), time of maximum plasma concentration (Tmax) and terminal elimination half-life (T1/2). The time of maximum concentration, Tmax, is determined as the time corresponding to Cmax. Area under the plasma concentration-time curve up to the time corresponding to the last measurable concentration (AUC0-t) is calculated by numerical integration using the linear trapezoidal rule as follows: The terminal half-life (T1/2) is calculated using the following equation: The area under the plasma concentration-time curve from time zero to infinity is calculated according to the following equation: A double-blind, placebo controlled single dose study of the pharmacokinetic parameters of cariprazine (capsules) in healthy male volunteers was conducted. [table] The composition of the capsules is given below in Table 31. The mean pharmacokinetic parameters observed after administration of a single dose of 0.5 to 2.5 mg cariprazine are shown below in Table 32.

[3] = Single-center, randomized, open-label, parallel-group single-dose study, 2-mg tablet fasted/fed (Example 5); type: in vivo; settings: both sexes, human, plasma, po, mean, single oral 2-mg tablet; for half-life: read-out: T½ (converted)
Procedure: The objectives of this study were (i) to assess the effect of food on the oral bioavailability of cariprazine (2-mg tablet), (ii) to assess the effect of gender on the oral bioavailability of cariprazine after a single oral dose (2-mg tablet), and (iii) to evaluate the pharmacokinetics of cariprazine and its metabolites after an oral dose (2-mg tablet). This clinical study was conducted as a single-center, randomized, open-label, parallel-group single-dose study. A total of 42 healthy male and female patients aged 18-45 years were selected, with an approximate male-to-female ratio of 1:1. Dosing occurred in two treatment sessions (Treatment 1 and Treatment 2) separated by 5 to 7 days. The subjects were randomized with ˜1:1 male-female ratio to receive one of the following two treatments: • Treatment 1: • Single oral dose of one 2-mg cariprazine tablet under fasted conditions (12 female, 11 male subjects) • Treatment 2: • Single oral dose of one 2-mg cariprazine tablet under fed conditions (10 female, 9 male subjects) Subjects were given the study drug with 240 mL of water in the clinic under fed/fasted conditions at 0800 hours on Day 1. Subjects taking Treatment 1 underwent a 10-hour overnight fast before dosing on Day 1 and continued fasting for an additional 4 hours postdose. Subjects taking Treatment 2 underwent a 10-hour overnight fast before eating a US Food and Drug Administration standardized high-fat breakfast at 0730 hours on Dosing Day 1. This study was 30 days in duration (Day −1 through the last pharmacokinetic (PK) blood sample collection on Day 29). Blood sampling was performed at the following times to determine cariprazine plasma concentrations: 0.0 (predose), 0.5, 1, 2, 3, 4, 6, 8, 12, 24, 36, 48, 72, 96, 168, 336, 504 and 672 hours postdose.

[4] = Multiple dose study in healthy male volunteers (Example 6); type: in vivo; settings: human, plasma, fasted; for AUC: read-out: AUC0-τ
Procedure: Thirty-two healthy male subjects (mean age=24.9 years) were randomized into 4 groups (I-IV). In each group, 2 subjects received placebo and 6 subjects received one of the following treatments: • (I) 7 doses of 0.5 mg cariprazine administered every other day; • (II) 14 doses of 0.5 mg cariprazine every day; • (III) 2 doses of 0.5 mg cariprazine followed by 12 doses of 1.0 mg cariprazine every day; and • (IV) 21 doses of 1.0 mg cariprazine every day. Plasma samples were analyzed for cariprazine by a validated LC-MS/MS assay (Internal Standards: deuterated compounds; Sample preparation: Liquid-liquid extraction after alkalization; Sample Volume: 1 mL; Calibration Range: 0.05-25 ng/mL; Inonization: +ESI with MRM mode). The design of the study is shown below in Table 35. [table]

[5] = Linear calculated pharmacokinetic parameters (Table 33); type: in vivo; settings: human, plasma, po; for AUC(0-t): read-out: Mean AUC0-168
Procedure: Linear calculated pharmacokinetic parameters (based on the 2.0 mg data (Table 35, 80% of AUClast, Treatment I) for dosages greater than 2.0 mg and on the 0.5 mg data for dosages lower than 0.5 mg (Table 33) are shown in Table 33.

[6] = 0.5 mg, Group I: 7 doses of 0.5 mg every other day
[7] = 0.5 mg, Group II: 14 doses of 0.5 mg every day
[8] = 1 mg, Group IV: 21 doses of 1.0 mg every day
[9] = Group III: 2 doses of 0.5 mg followed by 12 doses of 1.0 mg every day
[10] = mean, single dose 0.5 mg capsules, fasted, Group III Period 1
[11] = mean, single dose 1 mg capsules, fasted, Group I Period 1
[12] = mean, single dose 1.5 mg capsules, fasted, Group II Period 2
[13] = mean, single dose 2 mg capsules, fasted, Group I Period 2
[14] = mean, single dose 2.5 mg capsules, fasted, Group II Period 1

dose proportionality of exposure relative to mean AUC ([2]; single-dose range of 0.5 mg to 2.5 mg): approximate dose proportionality
Structure (SMILES): CN(C)C(=O)N[C@H]1CC[C@H](CCN2CCN(c3cccc(Cl)c3Cl)CC2)CC1.Cl [cariprazine hydrochloride, trans-1{4-[2-[4-(2,3-dichlorophenyl)-piperazin-1-yl]-ethyl]-cyclohexyl}-3,3-dimethyl-urea hydrochloride]
stability toward hydrolytic degradation product formation [1]: undergoes hydrolytic cleavage of the amide bond

AUC(0-inf) ([3]; Fed): 97 ng·h/mL
AUC(0-t) ([3]; Fed): 89.2 ng·h/mL
Cmax ([3]; Fed): 1.72 ng/mL
Tmax ([3]; Fed): 9.21 h
half-life ([3]; Fed): 198 h
AUC(0-inf) ([3]; Treatment 1 (Fasted)): 89.9 ng·h/mL
AUC(0-t) ([3]; Treatment 1 (Fasted)): 80.7 ng·h/mL
Cmax ([3]; Treatment 1 (Fasted)): 1.99 ng/mL
Tmax ([3]; Treatment 1 (Fasted)): 4.91 h
half-life ([3]; Treatment 1 (Fasted)): 203 h
Cmax [4, 6]: 1.03 ng/mL
AUC [4, 6]: 32.9 ng·h/mL
Tmax ([4]; 0.5 mg, Group I: 7 doses of 0.5 mg every other day, read-out: tmax): 4 h
Cmax [4, 7]: 1.42 ng/mL
AUC [4, 7]: 25 ng·h/mL
Tmax ([4]; 0.5 mg, Group II: 14 doses of 0.5 mg every day, read-out: tmax): 3.5 h
Cmax [4, 8]: 3.9 ng/mL
AUC [4, 8]: 56.8 ng·h/mL
Tmax ([4]; 1 mg, Group IV: 21 doses of 1.0 mg every day, read-out: tmax (range only printed)): 2 to 3 h
Cmax [4, 9]: 3.19 ng/mL
AUC [4, 9]: 53.6 ng·h/mL
Tmax ([4]; Group III: 2 doses of 0.5 mg followed by 12 doses of 1.0 mg every day, read-out: tmax): 4 h
Cmax ([5]; dose 0.1 mg): 0.03 ng/mL
AUC(0-t) ([5]; dose 0.1 mg): 2.82 ng·h/mL
Cmax ([5]; dose 0.25 mg): 0.09 ng/mL
AUC(0-t) ([5]; dose 0.25 mg): 1.05 ng·h/mL
Cmax ([5]; dose 3 mg): 3.8 ng/mL
AUC(0-t) ([5]; dose 3 mg): 96.8 ng·h/mL
Cmax ([5]; dose 4.5 mg): 5.7 ng/mL
AUC(0-t) ([5]; dose 4.5 mg): 145 ng·h/mL
Cmax ([5]; dose 5 mg): 6.33 ng/mL
AUC(0-t) ([5]; dose 5 mg): 161 ng·h/mL
Cmax ([5]; dose 6 mg): 7.6 ng/mL
AUC(0-t) ([5]; dose 6 mg): 194 ng·h/mL
Cmax ([5]; dose 7.5 mg): 9.5 ng/mL
AUC(0-t) ([5]; dose 7.5 mg): 242 ng·h/mL
Cmax ([5]; dose 9 mg): 11.4 ng/mL
AUC(0-t) ([5]; dose 9 mg): 290 ng·h/mL
Cmax ([5]; dose 12.5 mg): 15.8 ng/mL
AUC(0-t) ([5]; dose 12.5 mg): 404 ng·h/mL
Cmax ([5]; dose 15 mg): 19 ng/mL
AUC(0-t) ([5]; dose 15 mg): 484 ng·h/mL
Cmax [2, 10]: 0.14 ng/mL
Tmax [2, 10]: 6 h
half-life [2, 10]: 217 h
AUC(0-t) [2, 10]: 14.1 ng·h/mL
Cmax [2, 11]: 0.76 ng/mL
Tmax [2, 11]: 3 h
half-life [2, 11]: 185 h
AUC(0-t) [2, 11]: 35.4 ng·h/mL
Cmax [2, 12]: 1.19 ng/mL
Tmax [2, 12]: 3 h
half-life [2, 12]: 130 h
AUC(0-t) [2, 12]: 46.7 ng·h/mL
Cmax [2, 13]: 2.53 ng/mL
Tmax [2, 13]: 3 h
half-life [2, 13]: 130 h
AUC(0-t) [2, 13]: 95.3 ng·h/mL
Cmax [2, 14]: 2.5 ng/mL
Tmax [2, 14]: 4 h
half-life [2, 14]: 138 h
AUC(0-t) [2, 14]: 97.5 ng·h/mL
Tmax ([2]; single dose 0.5 to 2.5 mg): 3 to 6 h
Structure (SMILES): CN(C)C(=O)N[C@H]1CC[C@H](CCN2CCN(c3cccc(Cl)c3Cl)CC2)CC1 [cariprazine, trans-1{4-[2-[4-(2,3-dichlorophenyl)-piperazin-1-yl]-ethyl]-cyclohexyl}-3,3-dimethyl-urea]
